# Reference: US20070105162A1, “Monovalent avidin and streptavidin compositions” (Massachusetts Institute of Technology, priority 2005, published 2007)
# Columns and labels:
# [1] = Off-rate of 3H-biotin from streptavidin (cold biotin chase); format: binding; settings: 50 μM cold biotin chase, 5 hours at 37° C., ± s.e.m.
# Protocol: (Green, N. M. Methods in Enzymol. 184: 51-67, 1990). Dissociation was then initiated by addition of cold biotin at a final concentration of 50 μM and time-points taken over 5 hours at 37° C. 50 μL aliquots were removed and added to 200 μL 0.2M ZnSO4 chilled on ice, followed by 200 μL 0.2 M NaOH. The protein precipitate was pelleted by centrifugation at 16,500 g for 5 min, and ^3H-biotin in the supernatant was measured by liquid scintillation counting. Data were plotted as ln(fraction bound) versus time, and fit to a straight line by linear regression. Dissociation rates were deduced from the slope of the line and the equation: ln(fraction bound)=−koff(t) where fraction bound=(total ^3H-biotin−free ^3H-biotin at timepoint)/(total ^3H-biotin−free ^3H-biotin before cold biotin chase).
# [2] = test system: biotinylated AP-CFP-TM on HeLa cells; experiment: Staining of biotinylated AP-CFP-TM on HeLa with Alexa Fluor 568-conjugated streptavidins; format: cell-based; settings: Alexa Fluor 568 conjugate 10 μg/mL, 10 min at 4° C.
# Protocol: Enzymatic biotinylation and imaging of HeLa transfectants were performed as previously described (Howarth, M. et al., Proc. Natl. Acad. Sci. USA 102: 7583-7588, 2005), except instead of 10 μM biotin and 1 mM ATP, we added 10 μM biotin-AMP (synthesized according to Coleman and Huang; Coleman, T. M. and Huang, F. Chem. Biol. 9: 1227-1236, 2002) to give equivalent biotinylation but minimizing the risk of purinoreceptor activation by ATP (Rathbone, M. P. et al., Prog. Neurobiol. 59: 663-690, 1999). […] Biotinylation of neurons was performed at day in vitro (DIV) 8 in Hanks' Balanced Salt Solution (HBSS) (Invitrogen) with 0.2 μM biotin ligase and 10 μM biotin-AMP for 5 min at 37° C. […] Neurons were washed with NeuroBasal media (Invitrogen) supplemented with B-27 (Invitrogen), 50 U/mL penicillin, 50 μg/mL streptomycin, and 0.2 mM L-glutamine and chased in the same medium for 0 or 2 hr at 37° C. Cells were then fixed in −20° C. methanol. […]
# Images of HeLa cells were collected on a Zeiss Axiovert 200M inverted epifluorescence microscope using a 40× oil-immersion lens and a MicroMAX CCD camera (Roper Scientific; Tucson, Ariz.). CFP (420DF20 excitation, 450DRLP dichroic, 475DF40 emission) and Alexa568 (560DF20 excitation, 585DRLP dichroic, 605DF30 emission) images were collected and analyzed using OpenLab software (Improvision; Lexington, Mass.). Fluorescence images were background-corrected. […] Images were scaled to 16 bits and analyzed in Northern Eclipse (Empix Imaging; Ontario, Canada) with user-written software. […] Results were then calculated in terms of clusters per micrometer of dendrite. For assessment of pre-synaptic terminals, clusters were determined as before and average grey levels of clusters were compared between transfected dendrites and untransfected dendrites within the same field of view. […] “n” represents the number of transfected neurons for which clusters were measured. […]
# [3] = test system: biotinylated AP-neuroligin-1 on hippocampal neurons; experiment: AP-neuroligin-1 clustering in hippocampal neurons labeled with streptavidin; format: cell-based, rat; settings: two hour incubation at 37° C., Alexa Fluor 568 conjugate; ± s.e.m., n=9
# Protocol: HeLa cells were grown in Dulbecco's Modified Eagle Medium (DMEM) with 10% Fetal Calf Serum, 50 U/mL penicillin and 50 μg/mL streptomycin. HeLa stably expressing AP-CFP-TM or Ala-CFP-TM have been previously described (Howarth, M. et al., Proc. Natl. Acad. Sci. USA 102: 7583-7588, 2005). Dissociated primary neuronal cultures were prepared from Embryonic Day 18 or 19 (E18/19) rats and transfected with Lipofectamine 2000 at DIV6 as in Levinson et al. (Levinson, J. N. et al., J. Biol. Chem. 280: 17312-17319, 2005). […]
# Images of HeLa cells were collected on a Zeiss Axiovert 200M inverted epifluorescence microscope using a 40× oil-immersion lens and a MicroMAX CCD camera (Roper Scientific; Tucson, Ariz.). CFP (420DF20 excitation, 450DRLP dichroic, 475DF40 emission) and Alexa568 (560DF20 excitation, 585DRLP dichroic, 605DF30 emission) images were collected and analyzed using OpenLab software (Improvision; Lexington, Mass.). Fluorescence images were background-corrected. […] Images were scaled to 16 bits and analyzed in Northern Eclipse (Empix Imaging; Ontario, Canada) with user-written software. […] Results were then calculated in terms of clusters per micrometer of dendrite. For assessment of pre-synaptic terminals, clusters were determined as before and average grey levels of clusters were compared between transfected dendrites and untransfected dendrites within the same field of view. […]
# [4] = Electrospray ionization mass spectrometry: biotin molecules bound per streptavidin tetramer; format: binding
# Protocol: Biospin columns (Bio-Rad) were equilibrated by spinning 5 times in 500 μL of 15 mM ammonium acetate pH 7.8 at 1000 g for 2 min. Then 30-50 μL of 30 μM protein in PBS was buffer-exchanged into 15 mM ammonium acetate pH 7.8 using the pre-equilibrated Biospin columns by spinning for 20 s at 1000 g. To ensure that PBS was completely removed, the flow-through was again buffer-exchanged with a second pre-equilibrated column for 20 s. This procedure also removed free biotin when the starting 30 μM streptavidin forms were incubated with 200 μM biotin. Less than 2 min before introducing into the mass spectrometer, the buffer-exchanged samples were diluted with a solution of 1:1 15 mM ammonium acetate pH 7.8 and 78% acetonitrile, 0.01% trifluoroacetic acid.
# (§1) An Advion nanospray robot (Advion BioSystems, Ithica, N.Y.) with a back-pressure of 0.45 Psi introduced the samples into the mass spectrometer, an 8.5 Tesla custom-built Electrospray Ionisation-Fourier Transform Mass Spectrometer. To visualize the non-covalent tetramers and non-covalent biotin binding in the high m/z range, the following settings were used: Chirp rate=750 Hz, Amplitude=0.5 V p-p, Tube lens=200 V, Capillary heater 2 V, Quad filter=−20 V, Skimmer=0 V, Capillary offset=34 V, X-fer=−110 V, Leak gas=4.2×10^−5 Torr. The capillary heater was kept low and the Quad filter and Skimmer were kept either high or off to prevent subunit dissociation. The transfer was set to this low value of −110 V in order to visualize the high m/z region.
# The masses were calculated manually by first determining the charge state. The final mass was determined by multiplying the observed m/z by the charge and subtracting the mass corresponding to the addition of protons to give that charge. For example, for the 15+charge state of D4 an m/z of 3534.159 was obtained. (15×3534.159)-(15×1.00727) gave a mass for this ion of 52,997 Da. This calculation was repeated for each charge state and the mean and standard deviation reported. The spectra were calibrated with tetrameric streptavidin, after its monomer mass was determined under denaturing conditions (Mr=13,271.4 Da). Average masses were predicted from the DNA sequence, using the ExPASy PeptideMass Calculator (ca.expasy.org/tools/peptide-mass.html) and assuming removal of the N-terminal formyl-Methionine.
# The different tetramers were purified using a Ni-nitrilotriacetic acid (NTA) column, eluting according to the number of His6-tags with increasing concentrations of imidazole. […] The tetramer composition was further confirmed by boiling the samples before loading on SDS-PAGE, to determine the ratio of A to D subunits (FIG. 1D), and by electrospray ionization mass spectrometry. In Table 1 (Schwartz, B. L. et al., J. of the Amer. Soc. for Mass Spec. 6: 459-465, 1995) the observed mass (±s.d.), determined by Electrospray Ionization-Mass Spectrometry, is compared to the mass predicted from the sequence. From the change (±s.e.m.) upon addition of biotin (mass 244.31), we determined how many biotin molecules were bound to each tetramer.
# Electrospray ionization mass spectrometry was used to characterize the number of biotin molecules bound per tetramer. Spectra of the different streptavidin tetramers with or without biotin were acquired. […] The other chimeric tetramers bound one biotin per A subunit.
# [5] = Electrospray ionization mass spectrometry: biotin molecules bound per avidin tetramer; format: binding; settings: spectra with or without biotin
# Protocol: Biospin columns (Bio-Rad) are equilibrated by spinning 5 times in 500 μL of 15 mM ammonium acetate pH 7.8 at 1000 g for 2 min. Then 30-50 μL of 30 μM protein in PBS is buffer-exchanged into 15 mM ammonium acetate pH 7.8 using the pre-equilibrated Biospin columns by spinning for 20 s at 1000 g. To ensure that PBS is completely removed, the flow-through is again buffer-exchanged with a second pre-equilibrated column for 20 s. This procedure also removes free biotin when the starting 30 μM avidin forms are incubated with 200 μM biotin. Less than 2 min before introducing into the mass spectrometer, the buffer-exchanged samples are diluted with a solution of 1:1 15 mM ammonium acetate pH 7.8 and 78% acetonitrile, 0.01% trifluoroacetic acid.
# as §1, with “introduces” for “introduced”, “are” for “were”, “is” for “was”
# The masses are calculated manually by first determining the charge state. The final mass is determined by multiplying the observed m/z by the charge and subtracting the mass corresponding to the addition of protons to give that charge. This calculation is repeated for each charge state and the mean and standard deviation reported. The spectra are calibrated with tetrameric avidin, after its monomer mass is determined under denaturing conditions. […]
Substance,off-rate from biotin [1],Alexa staining of biotinylated AP-CFP-TM [2],AP-neuroligin-1 clusters per micrometer of dendrite [3] [clusters/μm],"# biotins (bound to each tetramer) ([4]; from mass change upon addition of biotin, 30 μM protein, 200 μM biotin)",biotin binding per tetramer by mass spectrometry (in words) ([4]; spectra with or without biotin),biotin binding per avidin tetramer by mass spectrometry (in words) [5]
wild-type streptavidin: Wild-type core streptavidin tetramer with 4 biotin binding sites (SEQ ID NO:2) [reference compound],5.17±0.25×10^−5 s^−1,detected equally well,0.266±0.011,,,
"A4: Wild-type streptavidin with a His6-tag, four Alive subunits (SEQ ID NO:4) [Tetramer A4]",,,,4,all four subunits,all four subunits
